Assay [1] concerns the target T1, purified recombinant human Aggrecanase-1 (rAgg1) (Homo sapiens, UniProt O75173).
T1 sequence (O75173 213-837): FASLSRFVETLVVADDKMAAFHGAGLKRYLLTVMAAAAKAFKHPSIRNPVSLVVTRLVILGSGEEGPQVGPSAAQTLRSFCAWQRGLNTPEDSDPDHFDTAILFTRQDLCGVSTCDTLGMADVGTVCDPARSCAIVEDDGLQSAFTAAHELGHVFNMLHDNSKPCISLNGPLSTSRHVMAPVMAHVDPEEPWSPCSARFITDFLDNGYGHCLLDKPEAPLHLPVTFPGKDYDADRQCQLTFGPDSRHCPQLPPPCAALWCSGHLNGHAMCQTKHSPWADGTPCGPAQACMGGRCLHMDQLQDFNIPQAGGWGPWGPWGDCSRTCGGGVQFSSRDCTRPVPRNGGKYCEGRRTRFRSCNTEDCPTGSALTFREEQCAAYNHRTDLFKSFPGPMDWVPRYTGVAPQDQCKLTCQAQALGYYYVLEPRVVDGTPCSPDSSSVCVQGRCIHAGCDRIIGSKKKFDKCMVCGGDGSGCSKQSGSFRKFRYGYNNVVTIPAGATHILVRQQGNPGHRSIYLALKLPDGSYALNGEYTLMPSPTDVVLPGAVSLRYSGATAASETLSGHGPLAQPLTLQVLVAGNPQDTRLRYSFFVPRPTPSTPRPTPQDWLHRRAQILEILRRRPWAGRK
The assay can be described thus: In vitro fluorescence screen for Aggrecanase-1 inhibitors. The settings on record: Table 1. Type of assay: biochemical.

In assay [2] the test system is Aggrecanase-mediated aggrecan cleavage in human OA cartilage explants. The assay can be described thus: Human osteoarthritic cartilage explant efficacy study (BC3 western analysis). Type of assay: cell-based. From the text:
(§1) Human OA Cartilage Explant Culture: Discarded tissues from consented knee replacement patients were obtained from New England Baptist Hospital (Brookline, Mass.) in sterile phosphate buffered saline (PBS) after about 2-4 hrs post surgery. Cartilage slices were harvested from the knee specimens and washed several times in PBS. These cartilage slices were cut into appropriate pieces (6-8 mm) and rinsed in PBS and then in media and further cultured for additional days as cartilage explants. The medium consisted of Dulbecco's Modified Eagle's medium (DMEM, JRH Biosciences, Lenexa, Kans.), 50 μg/ml ascorbic acid (Wako, Osaka, Japan), 10 mM HEPES, pH 7.0 (Mediatech, Herndon, Va.), 2 mM L-glutamine (Mediatech), 100 U/ml antibiotic-antimycotic solution (Mediatech).
Test compounds: The test compounds are described in Examples 8OO, 8NNNNNNN, and 8WWWWWWW. Stock solutions of the compounds were prepared at 1 mg/ml in DMSO, aliquoted and stored at −20° C. Working solutions of the compounds were made in DMSO and added to the culture for efficacy studies.
Efficacy study: Cartilage explants were cultured for 2-3 days in DMEM medium in a 37° C. and 5% CO2 environment to equilibrate the tissue. Explants were weighed (˜250 mg) and placed in wells of a 24-well culture dish in 1 ml of medium and 3 replicates per treatment group. For the efficacy study, cartilage explants were cultured for 6 days in the presence or absence of various concentrations of the test compound. The media was replaced on day 3 and the experiment was terminated on day 6. Total aggrecan content of conditioned media was measured by a colorimetric assay with DMMB (Farndale, R W et al., Biochim Biophys Acta. 1986, 883, 173-177).
Western analysis: Aggrecan fragments in conditioned medium were analyzed by western analysis using neoepitope antibody, BC-3 designed to recognize the Aggrecanase-generated N-terminal interglobular neoepitope ^374ARGS. Equal cartilage weight equivalent conditioned media from each replicate well per treatment group was pooled and digested with Chondroitinase ABC (Sigma, St Louis, Mo.), Keratinase I (Seikagaku America, Falmouth, Mass.) and Keratinase II (Seikagaku America, Falmouth, Mass.) for 2 h at 37° C. Samples were concentrated by YM-10 centrifugal filter device (Millipore Corp., Bedford, Mass.), lyophilized and reconstituted with equal volume of water. Samples were separated under reducing conditions on 4-12% gradient Tris-glycine gels (Invitrogen, Carlsbad, Calif.). Proteins from the gels were transferred to nitrocellulose membranes. Immunoblots were probed using Mab BC-3 (Abcam, Cambridge, Mass.). Incubation with primary and alkaline-phosphatase-conjugated secondary goat anti-mouse IgG (Promega Corp., Madison, Wis.) was performed overnight at 4° C. and at room temperature for 1 h, respectively. The immunoblots were incubated with NBT/BCIP substrate (Promega Corp., Madison, Wis.) at room temperature to achieve optimum color development. The aggrecan fragments containing the ARGS neoepitope were quantitated by densitometry analysis and the percentage inhibition of aggrecan degradation by test compounds was determined.

Assay [3] deals with newly synthesized aggrecan in human OA articular cartilage. Briefly: Cartilage aggrecan metabolism study in human OA cartilage explants. Type of assay: cell-based. The settings on record: cartilage from 3 human OA donors, 35SO4 label.
Excerpt: as §1
Cartilage aggrecan metabolism study: Cartilage metabolism study was performed with test compound 8OO. Cartilage explants immediately after harvest were cultured in the presence or absence of test compound 8OO. On day 3, media was collected and replaced with media, test compound and labeled sulfate (^35SO4,5 mCi, Perkin Elmer, Boston, Mass.). On day 6, media was collected, explants washed and replaced with media and test compound 8OO. […] Labeled aggrecan molecules were counted using Opti-Fluor (Perkin Elmer) and a liquid scintillation-measuring instrument (Beckman Coulter, Fullerton, Calif.). […]

In brackets after ≈: the same amount, converted by molar mass. Where only a bound is given, the exact number is not on record here.

`CC(C)(Cc1ccc(F)cc1)NC(=O)[C@H](CCC(=O)O)NC(=O)c1ccc(-c2ccccc2)cc1` [Example 8OO, N^2-(1,1′-biphenyl-4-ylcarbonyl)-N^1-[2-(4-fluorophenyl)-1,1-dimethylethyl]-L-α-glutamine]: the Ki in assay [1] (enzyme not given, column follows Agg1 IC50, read-out: Ki) stood at 6 nM. Moreover, the IC50 in assay [1] (read-out: Agg1 IC50) is under 30 nM. In addition, in assay [2] (144 h, human OA cartilage explants, 6 days, BC3 analysis, read-out: EC50 (inhibition of aggrecanase generated aggrecan fragments)), the EC50 was about 0.15 µg/mL (≈ 0.315 µM). In assay [2] (Homo sapiens, 0.02 ug/ml, average of 15 donors, read-out: % inhibition (BC3 analysis)), the inhibition at 0.02 µg/mL was 8.52%. In addition, the inhibition at 0.04 µg/mL in assay [2] (Homo sapiens, 0.04 ug/ml, average of 15 donors, read-out: % inhibition (BC3 analysis)) is 26.2%. Further, the inhibition at 0.08 µg/mL in assay [2] (Homo sapiens, 0.08 ug/ml, average of 15 donors, read-out: % inhibition (BC3 analysis)) was 42.9%. In assay [2] (Homo sapiens, 0.15 ug/ml, average of 15 donors, read-out: % inhibition (BC3 analysis)), the inhibition at 0.15 µg/mL was 49%. In addition, the inhibition at 0.3 µg/mL in assay [2] (Homo sapiens, 0.3 ug/ml, average of 15 donors, read-out: % inhibition (BC3 analysis)) is 56.4%. In addition, the inhibition at 0.6 µg/mL in assay [2] (Homo sapiens, 0.6 ug/ml, average of 15 donors, read-out: % inhibition (BC3 analysis)) was 73.9%. Moreover, in assay [2] (Homo sapiens, 1.25 ug/ml, average of 15 donors, read-out: % inhibition (BC3 analysis)), the inhibition at 1.25 µg/mL was 83.4%. The inhibition at 2.5 µg/mL in assay [2] (Homo sapiens, 2.5 ug/ml, average of 15 donors) was found to be 101%. Moreover, in assay [2] (Homo sapiens, 5 ug/ml, average of 15 donors), the inhibition at 5 µg/mL was found to be 98.9%. The inhibition at 10 µg/mL in assay [2] (Homo sapiens, 10 ug/ml, average of 15 donors) worked out at 102%. Moreover, in assay [3], the “aggrecan released into the medium” value is recorded as “equivalent decrease” and the “newly synthesized aggrecan content of the cartilage matrix” value is listed as “dose dependent increase”.

Source of the values: patent US7998965B2, “Glutamate aggrecanase inhibitors” (Wyeth LLC, priority 2005, dated 2011).
